These results are taken from PMC11551755, “Structure-based discovery of first inhibitors targeting the helicase activity of human PIF1” (Nucleic Acids Research, 2024).

Molecules are shown by their SMILES.

In this test the target is T1, human UPF1 (hUPF1) helicase (Homo sapiens, UniProt Q92900).
T1 construct: Full-length human UPF1 helicase was expressed and purified as described previously; made in house
T1 sequence (Q92900 1-1129): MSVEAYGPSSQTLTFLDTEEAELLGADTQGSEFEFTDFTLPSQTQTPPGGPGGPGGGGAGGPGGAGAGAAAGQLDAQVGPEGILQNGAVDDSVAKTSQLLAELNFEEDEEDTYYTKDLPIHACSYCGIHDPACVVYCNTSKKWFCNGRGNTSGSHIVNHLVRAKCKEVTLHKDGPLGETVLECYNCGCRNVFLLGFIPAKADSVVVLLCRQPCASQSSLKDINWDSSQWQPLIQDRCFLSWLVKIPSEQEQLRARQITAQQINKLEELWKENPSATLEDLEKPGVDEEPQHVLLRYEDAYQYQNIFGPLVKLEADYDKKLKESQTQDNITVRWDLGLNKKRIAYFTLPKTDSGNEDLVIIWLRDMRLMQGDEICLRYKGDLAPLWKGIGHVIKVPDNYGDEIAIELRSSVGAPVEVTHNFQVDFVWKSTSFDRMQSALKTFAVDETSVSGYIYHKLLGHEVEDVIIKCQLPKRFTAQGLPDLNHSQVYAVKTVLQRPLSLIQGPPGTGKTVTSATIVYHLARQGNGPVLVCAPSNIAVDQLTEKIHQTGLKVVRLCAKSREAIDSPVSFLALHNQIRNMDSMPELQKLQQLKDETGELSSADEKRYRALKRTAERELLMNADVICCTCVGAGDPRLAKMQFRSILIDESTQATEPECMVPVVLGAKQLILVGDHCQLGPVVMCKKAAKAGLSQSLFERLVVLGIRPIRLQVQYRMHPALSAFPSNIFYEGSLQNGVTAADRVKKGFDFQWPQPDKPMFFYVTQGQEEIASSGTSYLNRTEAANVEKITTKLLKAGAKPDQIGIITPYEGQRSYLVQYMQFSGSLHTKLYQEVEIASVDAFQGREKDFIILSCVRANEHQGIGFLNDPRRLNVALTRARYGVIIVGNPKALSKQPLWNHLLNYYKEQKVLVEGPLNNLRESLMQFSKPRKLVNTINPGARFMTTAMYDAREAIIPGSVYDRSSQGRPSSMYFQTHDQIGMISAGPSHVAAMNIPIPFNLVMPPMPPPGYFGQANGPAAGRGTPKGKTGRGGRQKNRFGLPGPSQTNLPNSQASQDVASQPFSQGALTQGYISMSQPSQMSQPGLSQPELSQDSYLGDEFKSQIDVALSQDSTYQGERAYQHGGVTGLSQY
The experiment in a line: helicase assay after pre-incubation of SMI with hUPF1. To be noted: for IC50: 2 h pre-incubation at 22°C with 100 nM hUPF1, then 1:10 dilution into helicase assay, read-out: IC50 for dsDNA unwinding by hUPF1 following pre-incubation. Format: biochemical. The protocol:
Full-length human UPF1 helicase was expressed and purified as described previously ([36]).
In parallel, IC50 values for inhibition of human UPF1 (hUPF1) helicase activity by the SMIs were also determined under the same conditions. UPF1-like SF1B helicases are the most closely related family of helicases to PIF1, with significant structural and mechanistic similarity ([52]).
Figure 6. SMI IC50 for dsDNA unwinding determined following pre-incubation. SMIs (0.0078–2 mM SMI) were incubated for 2 h at 22°C (100 nM FLhPIF1 or hUPF1) before dilution (1:10) in the standard helicase assay (0.1 nM DNA substrate). For 1D and 6, structures, electrophoresis of FLhPIF1 reaction product and graphs for IC50 value determination are shown. The graphed data include the activity of SMIs towards hUPF1 and IC50 values obtained are given. See Supplementary Figure S14 for the complete data set. TEXT PRINTED IN THE PICTURE: 1D: IC50 (μM): PIF1: 978 ± 221; IC50 (μM): UPF1: N.D. | 6: IC50 (μM): PIF1: 79.4 ± 16; IC50 (μM): UPF1: 1750 ± 426
Supplementary Figure 14. IC50 DNA unwinding determined following 2 hours pre-incubation. […] The assay procedure and reaction conditions for each helicase were identical (see methods, main manuscript). The figure complements main manuscript Figure 6. […] The reason for this is unclear.

Broadly, the IC50 is the concentration that inhibits the measured activity by half. In the case of `CC(=O)c1ccc(-c2csc(N)n2)cc1` [Compound 2], the IC50 was 445 ± 132 µM.

Take `N#Cc1ccc(-c2csc(N)n2)cc1` [Compound 5]: the IC50 was 289 ± 127 µM.

With `Nc1nc(-c2ccc(C(=O)c3ccccc3)cc2)cs1` [Compound 6], the IC50 was 1750 ± 426 µM. Moreover, the “fold difference in sensitivity, hUPF1 vs FLhPIF1 IC50” value (2 h pre-incubation) is ~22 fold.

Regarding `CC(=O)Nc1ccc(-c2csc(N)n2)cc1C1=CCNCC1` [Compound 11], the half-inhibitory concentration (IC50) amounted to 576 ± 146 µM.
